Experiment [1] has as its target T1, type II dehydroquinase from Streptomyces coelicolor (Streptomyces coelicolor, UniProt P15474). Description: S. coelicolor DHQase enzyme inhibition in vitro. The class given is biochemical. An excerpt: (§1) The next step was to purchase the compounds highlighted by these protocols to test them in vitro against M. tuberculosis DHQase and S. coelicolor DHQase. With the modest budget assigned to this proof of concept (£5000), we could purchase 148 compounds (full details on this process can be found in electronic supplementary material, Materials and methods). Tables 1 and 2 show the performance of each virtual screening protocol against each target (all IC50 measurements are included in the electronic supplementary material). […]. […].
(§2) In order to assess the overall hit rate and potency of these inhibitors, we calculated their inhibition constant (Ki) as explained in electronic supplementary material, Materials and methods (see table 3 for a summary). This is necessary to have a more accurate comparison with hit rates in the literature and with the potency of previously known inhibitors. […]. a total of 40 inhibitors) being noticeably higher than that for M. tuberculosis DHQase (23.6%; 35 inhibitors). […]. This difference might be due to the fact that our protocols are primarily exploiting crystal structures for S. coelicolor DHQase. […].

In another experiment the target is H. pylori DHQase. More on the design: method as in PMID 16480265. As to conditions: HTS hit; read-out: Ki against H. pylori DHQase; cited from earlier work.
Experiment [2] deals with T2, type II dehydroquinase from Mycobacterium tuberculosis (Mycobacterium tuberculosis, UniProt P9WPX7). Kind of experiment: M. tuberculosis DHQase enzyme inhibition in vitro. The class given is biochemical. As to conditions: Ki calculated from measured IC50, read-out: Ki (Mtb; μM).
T2 sequence (P9WPX7 whole entry): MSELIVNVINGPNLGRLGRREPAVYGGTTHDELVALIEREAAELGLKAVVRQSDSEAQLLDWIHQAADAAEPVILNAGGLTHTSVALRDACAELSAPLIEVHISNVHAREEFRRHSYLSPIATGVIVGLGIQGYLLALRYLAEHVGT
Excerpt: as §1, §2

The target of experiment [3] is T1, type II dehydroquinase from Streptomyces coelicolor. As to conditions: cited from earlier work.
In experiment [4] the target is T2, type II dehydroquinase from Mycobacterium tuberculosis. The conditions noted are these: search template RP4, known optimized inhibitor; reference not given, probably ref 33; read-out: Ki (Mtb; μM); cited from earlier work.

Where two headings read alike, the source gives them in different places.

In general, Ki refers to the equilibrium dissociation constant of an inhibitor or competing ligand from its target. A word on the inhibition: it is the drop in the measured response relative to a control, in per cent.

T1 sequence (P15474 whole entry): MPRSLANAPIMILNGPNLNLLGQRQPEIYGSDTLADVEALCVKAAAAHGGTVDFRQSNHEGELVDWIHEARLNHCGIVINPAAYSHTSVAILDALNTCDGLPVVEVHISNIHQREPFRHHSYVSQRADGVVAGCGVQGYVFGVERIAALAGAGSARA

In the case of `O=C(O)[C@H](Cc1ccccc1)N1C(=O)/C(=C/c2cccc3ccccc23)SC1=S` [ZINC00978022], in experiment [1], the affinity corresponds to a Ki of 4 µM.

Take `O=c1c2ccccc2oc2ccc(S(=O)(=O)N=c3[nH]nn[nH]3)cc12` [GAJ]: on H. pylori DHQase, the Ki is 20 µM.

With `CC(C)N(C(=O)COC(=O)c1ccc(N)c([N+](=O)[O-])c1)C(C)C` [ZINC05657290], the Ki in experiment [2] is 192 µM; in experiment [1], 201 µM.

With `CCOC(=O)C1=C(CSc2nc3ccccc3[nH]2)NC(=O)N[C@H]1C` [ZINC06024496], the results for the Ki in experiment [2] and in experiment [1] were 159 µM and 174 µM, respectively.

Regarding `O=C(Cn1nc2ccccn2c1=O)N(Cc1cccs1)Cc1cccs1` [ZINC24469052], in experiment [1], the affinity, expressed as Ki, was 21 µM.

Turning to `O=C(O)[C@]1(O)C[C@H](CCCOc2ccccc2)[C@@H](O)[C@H](O)C1` [CA2], in experiment [3] (read-out: measured Ki (2BT4 ligand)), the Ki is 33 µM.

For `CC[C@H](C)NC(=O)c1ccccc1NC(=O)Cc1c(F)cccc1Cl` [ZINC15608616], the Ki is 150 µM in experiment [2] and 149 µM in experiment [1].

Take `COc1ccc(CC(=O)Nc2cc(C(F)(F)F)ccc2N(C)C)cc1F` [ZINC18086350]: the Ki in experiment [2] is 166 µM. The inhibition at 224 µM in experiment [1] (read-out: inhibition of S. coelicolor DHQase) stood at 45%.

For `O=C(O)[C@]1(O)C=C(c2cccc(Sc3ccccc3)c2)[C@@H](O)[C@H](O)C1` [RP4], the inhibition constant Ki in experiment [4] is 0.38 µM; in experiment [3] (read-out: Ki (Sc; μM), search template RP4, known optimized inhibitor), 0.07 µM.

For `CC[C@H](C)NC(=O)c1ccccc1NC(=O)Cc1ccccc1` [ZINC10025084], the Ki in experiment [2] is 167 µM; in experiment [1], 148 µM.

The values are drawn from publication PMC3481598, “Hierarchical virtual screening for the discovery of new molecular scaffolds in antibacterial hit identification” (Journal of the Royal Society Interface, 2012).
